From patent publication US7371207B2 (Wyeth, priority 2002, dated 2008)

System: gene expression in the pituitary
Assay: GeneChip microarray survey of E2 regulated gene expression, pituitary
Type: in vivo, mouse
From the text: One week later, the animals were ovariectomized.

[1] = 20 μg/kg/day E2 s.c. six weeks, WT and ERβKO ovariectomized mice, number of genes

C[C@]12CC[C@@H]3c4ccc(O)cc4CC[C@H]3[C@@H]1CC[C@@H]2O [E2, 17β-estradiol]
ERα pattern regulations in pituitary, number of inductions [1]: 56
ERα pattern regulations in pituitary, number of repressions [1]: 30
Kallikrein-9 expression in pituitary (mouse, in vivo): Induced
